The record followed here is patent US7307102B2, “Method of preventing or treating estrogen-dependent diseases and disorders” (Duke University, priority 1997, dated 2007).

Structures are written as SMILES.

Series [1] is described as follows: Total serum cholesterol in ovariectomized rats. Particulars: OVX rats, 28 days, lowest concentration tested, FIG. 4. The series is classed as in vivo, rat. As for the experimental part:
(§1) Animal preparation. […] At sacrifice, animals were euthanized with C02, body weights were recorded and the uteri were removed and weighed. Uterus, vagina and mammary tissue were fixed in 10% neutral buffered formalin. Samples for histologic processing were taken from the mid-point of each uterine horn. Tissue samples were embedded in paraffin, stained with haematoxylin and eosin and evaluated microscopically. Lumbar vertebrae and both left and right tibiae were excised. Total blood cholesterol was measured (Roche Biomedical Laboratories).

Series [2] relates to MCF-7 breast cancer tumors. The series can be described thus: Dose response study, MCF-7 breast cancer tumors in nude mice (Example 5). In kind it is in vivo, mouse. Particulars: after 8 weeks, 0.6 mg and 1.0 mg vs 1.0 mg tamoxifen, FIG. 10. As for the experimental part: 10 OVX donor mice were injected with 5 million MCF-7 cells. The resulting tumors were transplanted to recipient mice. All animals were given slow release estradiol pellets. […] Tumors were measured daily with calipers, and the area calculated as follows: Area=½×w/2×π.

A short description of series [3]: Uterine wet weight, body weight and uterine histology in ovariectomized rats, 28 day treatment. In kind it is in vivo, rat. As for the experimental part: FIGS. 8A-8D. […] Photographs were taken at 150× magnification and subsequently enlarged to a final magnification of 600×.
as §1
In addition to measurements of uterine wet weight, a histological examination of the uteri harvested from the same animals was performed (FIGS. 7A-7F (low magnification) and FIGS. 8A-8D (high magnification)).

The subject of the next series is MCF-7/LCC2. Briefly: LCC2 study, MCF-7/LCC2 tumors in nude mice. The following applies: after 8 weeks, 1.0 mg every three days, FIG. 11. In kind it is in vivo, mouse. As for the experimental part: This experiment was conducted to determine the ability of GW5638 to retard the growth of this cell line in nude mice relative to control or tamoxifen treated tumors.
40 OVX mice were prepared to accept cells and grouped as follows:
Control animals received nothing and groups 3 and 4 received 0.1 ml injections in corn oil every three days. Tumors were measured Q3 days with calipers, and the area calculated as follows: Area=½×w/2×π.

Series [4] is described as follows: Bone mineral density in ovariectomized rats (DEXA, pQCT). The series is classed as in vivo, rat. Particulars: oral, 28 days. The procedure: FIGS. 3A and 3B. […] FIG. 3A. […] FIG. 3B.
as §1

Turning to `CC/C(=C(\c1ccccc1)c1ccc(/C=C/C(=O)O)cc1)c1ccccc1` [GW5638], in series [1], the “total serum cholesterol level” value is given as “as effective as estradiol in decreasing serum cholesterol levels”. Moreover, in series [2], the “tumor growth compared with tamoxifen” value is listed as “indistinguishable from the 1.0 mg tamoxifen”. For the same compound, the “uterotrophic activity (uterine wet weight)” value in series [3] (90-day old OVX rats, 28 days, doses up to three times that required for bone protection, FIG. 6) is reported as “minimal uterotrophic activity”. Besides, in series [3] (OVX rats, 28 days), the “total body weight versus sham operated animals” value is on record as “no significant differences”; the “uterine epithelial cells, histology” value is reported as “dose-related hypertrophy”; the “uterine stroma, histology” value is “marginal increase in intercellular connective tissue and ground substance”. For the same compound, the “stromal response and eosinophilic infiltration at the highest doses” value in series [3] (OVX rats, highest doses) is “less than observed in estradiol treated rats”. In addition, the “epithelial hypertrophy at the highest doses” value in series [3] (OVX rats, highest doses (3-fold higher than required for bone protection)) is recorded as “comparable to that of estradiol treated uteri”. In addition, the tumor growth result in the series with MCF-7/LCC2 was “equally inhibit growth of this tumor”. The “bone mineral density, lumbar spine” value in series [4] (90-day old OVX rats, FIG. 3A) is given as “dose-dependent bone protective activity”. Further, the “tibial BMD” value in series [4] (OVX rats, FIG. 3B) was “effective at maintaining total bone mass”. For the same compound, the “dose at which bone protection is as effective as estradiol” value in series [4] (lumbar spine BMD, OVX rats, 3 μmol/kg(1 mg/kg)) worked out at 3 µmol/kg.
